According to paper PMC11420944, “Targeted Degradation of Protein Kinase A via a Stapled Peptide PROTAC” (ACS Chemical Biology, 2024):

Legend:
[1] = test system: phospho serine/threonine PKA substrate; test: PKA substrate phosphorylation in forskolin-stimulated cells, Western blot; format: cell-based; details: MDA-MB-231 cells, 50 µM H89 added 30 min before 50 µM forskolin (30 min); n = 3
Description: (§1) Next, we sought to assess whether StIP-TAC could also downregulate PKAc signaling in cells. For this experiment, cells were treated with forskolin to stimulate PKAc activity. Cells were either treated with DMSO, the small molecule PKAc inhibitor H89, StIP-TAC alone, or StIP-TAC with SAINT protein (Figure 4; Figure S7). […] (Figure 4C,D). A known PKA substrate, vasodilator-stimulated phosphoprotein (VASP),[42] was also probed for PKA-mediated phosphorylation (Figure S8).
Cell-based PROTAC activity assays. MDA-MB-231 cells were grown on 6-well tissue culture plates (BD Biosciences). Cells were serum-starved for 24 hours in serum-free RPMI with penicillin/streptomycin, glucose, and L-glutamine. StIP-TAC treatment was prepared with SAINT-Protein reagent according to manufacturer protocol (Synvolux) and added to cells at a final concentration of 10 µM for 5 hours. For phosphorylation studies, cells were additionally stimulated with 50 µM forskolin for 30 minutes before harvesting. For H89-treated cells, 50 μM H89 was added 30 minutes before stimulation […]
with forskolin. […]
Cells were harvested in Laemmli sample buffer, boiled for 10 minutes and protein levels were analyzed via western blotting. For control experiments, cells were incubated for 5 hours with an equivalent volume of DMSO or SAINT-Protein to the above studies, with or without forskolin stimulation.
To assess PKA degradation, anti-PKAc (1:1000, BD Biosciences) and anti-GAPDH (1:1000, Proteintech) primary antibodies were used. To assess PKA substrate phosphorylation, anti-phospho serine/threonine PKA substrate (1:1000, Cell Signaling […]
Incubation with primary antibodies was followed by incubation with anti-mouse […]
Biosciences). Western blot fluorescence detection was performed using a LI-COR Odyssey Fc imaging system. Data analysis was performed using GraphPad Prism […]
Figure S7: Western blots for PKA substrate phosphorylation. Experiments were performed in triplicate (n=3) in low passage number MDA-MB-231 cells (ATCC HTB-26). Following t = 24 hour starvation in serum-free RPMI media, cells were treated for t = 5 hours with DMSO, SAINT-Protein Lipid reagent alone, 10 µM StIP-TAC, or 10 µM StIP-TAC incubated with SAINT-Protein Lipid reagent per manufacturer instructions. For forskolin-stimulated treatments, cells were incubated for 30 minutes with 50 µM forskolin […]
prior to harvesting in Laemmli sample buffer. For H89-inhibited treatments, cells were incubated for 30 minutes prior to forskolin stimulation with 50 µM H89. Lysates were run via SDS-PAGE and Western blotting performed anti-phospho serine/threonine PKA substrate (1:1000, Cell Signaling Technology) and anti-tubulin (1:1000, Cell Signaling Technology) primary antibodies.

phospho VASP = test: VASP phosphorylation in forskolin-stimulated cells, Western blot; format: cell-based; details: MDA-MB-231 cells, 50 µM H89 added 30 min before 50 µM forskolin (30 min); n = 3
Description: as §1
Cell-based PROTAC activity assays. MDA-MB-231 cells were grown on 6-well tissue culture plates (BD Biosciences). Cells were serum-starved for 24 hours in serum-free RPMI with penicillin/streptomycin, glucose, and L-glutamine. StIP-TAC treatment was prepared with SAINT-Protein reagent according to manufacturer protocol (Synvolux) and added to cells at a final concentration of 10 µM for 5 hours. For phosphorylation studies, cells were additionally stimulated with 50 µM forskolin for 30 minutes before harvesting. For H89-treated cells, 50 μM H89 was added 30 minutes before stimulation with forskolin. For degradation studies, cells were co-treated with 10 μM MG-132 (Selleck Chemicals) alongside StIP-TAC and DMSO treatments for the duration of the 5-hour experiment. […] Cells were harvested in Laemmli sample buffer, boiled for 10 minutes and protein levels were analyzed via western blotting. […]
Biosciences). Western blot fluorescence detection was performed using a LI-COR Odyssey Fc imaging system. […]
Table S1. Peptide and PROTAC sequences, expected and observed masses determined via HPLC-MS. […]
Figure S8: StIP-TAC inhibits phosphorylation of the PKA substrate VASP. […] (B) Densitometric quantification of Western blots […]
reduction in phosphorylated VASP in cells treated with H89 and StIP-TAC with SAINT Protein reagent. Quantification was performed via Li-COR Image Studio. **p=0.010; ***p<0.001; ns, not significant as assessed by one-way ANOVA and Bonferroni’s multiple comparisons test. […]

[2] = molecular target: recombinant human DNAJB1-PKAc (Homo sapiens, UniProt P17612+P25685); test: Fluorescence polarization direct binding of fluorescein-labeled peptides; details: FP, N-terminally FAM-labeled peptide 0.5 nM, DNAJ-PKA-C 3 µM to 30 pM, 20 mM MOPS pH 7, 150 mM NaCl, 0.005% CHAPS, 1 mM ATP, 10 mM MgCl2, room temperature, mean and SD of three independent measurements
Description: To determine the binding affinity of the truncated library toward the catalytic subunit of PKA, fluorescence polarization (FP) experiments were performed using N-terminally fluorescein-labeled PKI-derived peptides incubated with a range of concentrations of recombinant human DNAJB1-PKAc (Figure 2). The DNAJB1-PKAc chimera is a clinically relevant protein identified in fibrolamellar hepatocellular carcinoma (FL-HCC) patients that combines the chaperonin-binding domain of heat-shock protein 40 (HSP40/DNAJ) with the catalytic (c) subunit of PKA.[34] The active site of the DNAJB1-PKAc protein is identical to native PKAc and retains inhibition by PKI with a nearly identical binding conformation.[35] […] To generate the StIP-TAC, several PEG linker lengths were conjugated with the thalidomide-derived Cereblon Ligand 1 and preliminarily tested (PEG3 to PEG9; Figure S2). All PEG lengths appeared to yield compound activity, and thus the PEG8 linker was chosen to provide greater flexibility to the overall compound. […]
Fluorescence Polarization (FP) Assay. Binding studies for the truncated peptide library to DNAJ-PKA-C were performed according to protocols described previously 21.
FAM-labeled peptides were plated to a final concentration of 0.5 nM after the addition of protein in 384-well microtiter plates. A tenfold dilution series of DNAJ-PKA-C were mixed in peptide wells to have 6 final concentrations ranging from 3 µM to 30 pM.
Assays were performed using FP buffer (20 mM MOPS pH 7, 150 mM NaCl, 0.005% CHAPS, 1 mM ATP, 10 mM MgCl2) at room temperature. All data were obtained using a BioTek Synergy 2 microplate reader using the following settings: excitation/emission/dichroic filters: 485-20 nm/528-20 nm/510 nm, 50 flashes per well, settling time 0.1 s. Non-linear regression (sigmoidal dose-response) was performed using GraphPad Prism 6.01 on FP signals plotted against log-scale protein concentrations to determine equilibrium dissociation constants (KD). Data analysis was performed using GraphPad Prism (Dotmatics). […]

| Kd [2] [nM] | Kd ([2]; SD) [nM] | SMILES | total PKA substrate phosphorylation [1] | phosphorylated VASP (phospho VASP) |
| --- | --- | --- | --- | --- |
|  |  | O=S(=O)(NCCNC/C=C/c1ccc(Br)cc1)c1cccc2cnccc12 [H89, reference compound] | statistically significant reduction | statistically significant reduction |
| 3 to 4 | 3.5 ± 0.1 | CC[C@H](C)[C@H](NC(=O)[C@H](C)NC(=O)[C@H](CC(N)=O)NC(=O)[C@H](CCCNC(=N)N)NC(=O)[C@H](CCCNC(=N)N)NC(=O)CNC(=O)[C@@H](NC(=O)[C@H](CCCNC(=N)N)NC(=O)CNC(=O)[C@H](CO)NC(=O)[C@H](C)NC(=O)[C@@H](NC(=O)[C@H](Cc1ccccc1)NC(=O)[C@H](CC(=O)O)NC(=O)[C@]1(C)CCCC=CCCC[C@](C)(NC(=O)COCCOCCOCCNC(=O)c2ccc3c(c2)C(=O)OC32c3ccc(O)cc3Oc3cc(O)ccc32)C(=O)N[C@@H]([C@@H](C)O)C(=O)N[C@@H]([C@@H](C)O)C(=O)N[C@@H](Cc2ccc(O)cc2)C(=O)N1)[C@@H](C)CC)[C@@H](C)O)C(N)=O [StIP-3] |  |  |
| 3 to 4 | 3.2 ± 0.1 | CC[C@H](C)[C@H](NC(=O)[C@H](C)NC(=O)[C@H](CC(N)=O)NC(=O)[C@H](CCCNC(=N)N)NC(=O)[C@H](CCCNC(=N)N)NC(=O)CNC(=O)[C@@H](NC(=O)[C@H](CCCNC(=N)N)NC(=O)CNC(=O)[C@H](CO)NC(=O)[C@H](C)NC(=O)[C@@H](NC(=O)[C@H](Cc1ccccc1)NC(=O)[C@H](CC(=O)O)NC(=O)[C@]1(C)CCCC=CCCC[C@](C)(NC(=O)[C@@H](NC(=O)[C@H](CC(=O)O)NC(=O)[C@@H](NC(=O)COCCOCCOCCNC(=O)c2ccc3c(c2)C(=O)OC32c3ccc(O)cc3Oc3cc(O)ccc32)[C@@H](C)O)C(C)C)C(=O)N[C@@H]([C@@H](C)O)C(=O)N[C@@H]([C@@H](C)O)C(=O)N[C@@H](Cc2ccc(O)cc2)C(=O)N1)[C@@H](C)CC)[C@@H](C)O)C(N)=O [StIP-4] |  |  |
